The text below walks through data of patent US10968225B2, “Compounds and compositions for the treatment of cystic fibrosis” (Fondazione Istituto Italiano Di Tecnologia, priority 2017, dated 2021).

SMILES strings stand for the structures. pEC50: −log10 of the molar value. Where only a bound is given, the exact number is not on record here.

For this assay, the target named is T1, mutant CFTR (Homo sapiens, UniProt P13569, DEL508-508).
T1 construct: expressed in transfected cells
T1 sequence (P13569 with tags, fused parts or gaps DEL508-508): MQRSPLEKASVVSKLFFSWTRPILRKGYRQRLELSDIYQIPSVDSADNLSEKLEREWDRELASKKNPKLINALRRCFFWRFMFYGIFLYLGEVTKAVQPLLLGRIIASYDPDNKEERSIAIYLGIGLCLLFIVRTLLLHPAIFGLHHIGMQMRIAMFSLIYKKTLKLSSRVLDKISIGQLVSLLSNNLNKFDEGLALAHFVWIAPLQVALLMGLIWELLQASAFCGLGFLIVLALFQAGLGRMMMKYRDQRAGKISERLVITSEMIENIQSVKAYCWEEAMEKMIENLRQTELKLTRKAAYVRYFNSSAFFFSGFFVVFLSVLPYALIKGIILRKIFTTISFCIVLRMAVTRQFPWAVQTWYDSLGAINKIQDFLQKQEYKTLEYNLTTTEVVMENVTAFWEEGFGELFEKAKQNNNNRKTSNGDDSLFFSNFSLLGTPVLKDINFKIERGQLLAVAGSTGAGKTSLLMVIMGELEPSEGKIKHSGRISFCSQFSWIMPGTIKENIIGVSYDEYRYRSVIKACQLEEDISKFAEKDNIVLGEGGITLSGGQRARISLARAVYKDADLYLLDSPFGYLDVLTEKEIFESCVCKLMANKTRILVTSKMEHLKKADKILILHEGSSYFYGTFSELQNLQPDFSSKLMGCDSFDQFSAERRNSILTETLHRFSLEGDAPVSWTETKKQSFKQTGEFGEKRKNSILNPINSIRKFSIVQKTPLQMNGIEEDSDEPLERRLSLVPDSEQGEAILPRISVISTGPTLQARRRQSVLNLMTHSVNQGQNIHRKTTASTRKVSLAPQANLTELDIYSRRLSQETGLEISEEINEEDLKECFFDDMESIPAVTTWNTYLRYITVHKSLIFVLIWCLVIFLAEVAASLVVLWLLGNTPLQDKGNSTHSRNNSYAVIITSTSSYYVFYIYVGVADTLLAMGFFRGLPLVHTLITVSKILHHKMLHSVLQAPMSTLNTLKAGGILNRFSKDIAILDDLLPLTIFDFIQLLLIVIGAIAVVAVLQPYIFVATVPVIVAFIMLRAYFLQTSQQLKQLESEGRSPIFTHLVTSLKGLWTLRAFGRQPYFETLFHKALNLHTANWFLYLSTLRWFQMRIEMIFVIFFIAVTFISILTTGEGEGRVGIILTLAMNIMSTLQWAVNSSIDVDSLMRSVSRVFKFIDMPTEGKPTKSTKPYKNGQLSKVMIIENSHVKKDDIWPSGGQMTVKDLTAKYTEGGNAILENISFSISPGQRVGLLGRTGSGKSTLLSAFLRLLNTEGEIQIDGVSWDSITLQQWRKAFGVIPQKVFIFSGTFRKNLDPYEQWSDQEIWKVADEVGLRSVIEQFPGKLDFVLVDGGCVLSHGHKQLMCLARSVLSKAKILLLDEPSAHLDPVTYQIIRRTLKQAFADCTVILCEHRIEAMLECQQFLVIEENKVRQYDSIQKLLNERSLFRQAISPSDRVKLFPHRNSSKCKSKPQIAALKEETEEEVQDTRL
In words: Fluorescence (HS-YFP) assay for CFTR activity, corrector assay. The following applies: CFBE41o- and FRT cells with stable expression of mutant CFTR, read-out: activity (EC50). Format: cell-based.
A word on the pEC50: it is the EC50 on a negative log10 scale, so that one unit is a factor of ten. As to `Cc1nc2ccc(N(C)C(=O)c3cccc(-n4nc(C(F)(F)F)c5c4C(Oc4ncc(C(=O)O)cn4)COC5)c3)cc2o1` (racemic) [Compound 297], the pEC50 is over 6.00.

As for `CN(C(=O)c1cccc(-n2nc(C(F)(F)F)c3c2C(Oc2ncc(C(=O)O)cn2)COC3)c1)c1cnc2c(c1)OCC2` (racemic) [Compound 300, 2-[[1-[3-[2,3-Dihydrofuro[3,2-b]pyridin-6-yl(methyl)carbamoyl]phenyl]-3-(trifluoromethyl)-6,7-dihydro-4H-pyrano[4,3-c]pyrazol-7-yl]oxy]pyrimidine-5-carboxylic acid], the pEC50 is over 6.00.

Turning to `CN(C(=O)c1cccc(-n2nc(C(F)(F)F)c3c2C(n2cc(C(=O)O)ccc2=O)COC3)c1)c1ccc2c(c1)OC(F)(F)O2` (racemic) [Compound 301, (rac)-6-oxo-1-[1-[3-[(2,2-difluoro-1,3-benzodioxol-5-yl)-methyl-carbamoyl]phenyl]-3-(trifluoromethyl)-6,7-dihydro-4H-pyrano[4,3-c]pyrazol-7-yl]pyridine-3-carboxylic acid], the pEC50 is 5.70 to 6.00.

On to `CN(C(=O)c1cccc(-n2nc(C(F)(F)F)c3c2C(Oc2ccc(C(=O)O)nn2)CCC3)c1)c1ccc2c(c1)OC(F)(F)O2` (racemic) [Compound 302, 6-[[1-[3-[(2,2-Difluoro-1,3-benzodioxol-5-yl)-methyl-carbamoyl]phenyl]-3-(trifluoromethyl)-4,5,6,7-tetrahydroindazol-7-yl]oxy]pyridazine-3-carboxylic acid], for which the pEC50 is under 5.70.

In the case of `CN(C(=O)c1cccc(-n2nc(C(F)(F)F)c3c2C(Oc2ccc(C(=O)O)cc2)CCC3)c1)c1ccc2c(c1)S(=O)(=O)CC2` (racemic) [Compound 303, 4-[[1-[3-[(1,1-Dioxo-2,3-dihydrobenzothiophen-6-yl)-methyl-carbamoyl]phenyl]-3-(trifluoromethyl)-4,5,6,7-tetrahydroindazol-7-yl]oxy]benzoic acid], the pEC50 was under 5.70.

As to `CN(C(=O)c1cccc(-n2nc(C(F)(F)F)c3c2C(Oc2ncc(C(=O)O)cn2)COC3)c1)c1cnc2c(c1)CCC2` (racemic) [Compound 305, (rac)-2-[[1-[3-[6,7-dihydro-5H-cyclopenta[b]pyridin-3-yl(methyl)carbamoyl]phenyl]-3-(trifluoro-methyl)-6,7-dihydro-4H-pyrano[4,3-c]pyrazol-7-yl]oxy]pyrimidine-5-carboxylic acid], the pEC50 is over 6.00.

On to `COc1ncc(N(C)C(=O)c2cccc(-n3nc(C(F)(F)F)c4c3C(Oc3ccc(C(=O)O)cc3)COC4)c2)cn1` (racemic) [Compound 306, 4-[[1-[3-[(2-Methoxypyrimidin-5-yl)-methyl-carbamoyl]phenyl]-3-(trifluoromethyl)-6,7-dihydro-4H-pyrano[4,3-c]pyrazol-7-yl]oxy]benzoic acid], for which the pEC50 was 5.70 to 6.00.

As to `CN(C(=O)c1cccc(-n2nc(C(F)(F)F)c3c2C(Oc2ccc(C(=O)O)cc2)CCC3)c1)c1cncc(F)c1` (racemic) [Compound 307, (rac)-4-[[1-[3-[(5-fluoro-3-pyridyl)methyl-carbamoyl]phenyl]-3-(trifluoromethyl)-4,5,6,7-tetrahydroindazol-7-yl]oxy]benzoic acid], the pEC50 is under 5.70.

On to `COc1cc(N(C)C(=O)c2cccc(-n3nc(C(F)(F)F)c4c3C(Oc3ccc(C(=O)O)cc3)CCC4)c2)ccc1F` (racemic) [Compound 308, 4-[[1-[3-[(4-Fluoro-3-methoxy-phenyl)-methyl-carbamoyl]phenyl]-3-(trifluoromethyl)-4,5,6,7-tetrahydroindazol-7-yl]oxy]benzoic acid], for which the pEC50 is under 5.70.

For the molecule `CN(C(=O)c1cccc(-n2nc(C(F)(F)F)c3c2C(Oc2ccc(C(=O)O)cc2)CCC3)c1)c1cncc(Cl)c1` (racemic) [Compound 309, 4-[[1-[3-[(5-chloro-3-pyridyl)-methyl-carbamoyl]phenyl]-3-(trifluoromethyl)-4,5,6,7-tetrahydroindazol-7-yl]oxy]benzoic acid], the pEC50 is under 5.70.

For `CN(C(=O)c1cccc(-n2nc(C(F)(F)F)c3c2C(Oc2ccc(C(=O)O)cc2)CCC3)c1)c1cncc(C#N)c1` (racemic) [Compound 310, 4-[[1-[3-[(5-Cyano-3-pyridyl)-methyl-carbamoyl]phenyl]-3-(trifluoromethyl)-4,5,6,7-tetrahydroindazol-7-yl]oxy]benzoic acid], the negative-log EC50 (pEC50) is 5.70 to 6.00.

`COc1ccc(N(C)C(=O)c2cccc(-n3nc(C(F)(F)F)c4c3C(Oc3ccc(C(=O)O)cc3)CCC4)c2)cc1OC` (racemic) [Compound 311, 4-[[1-[3-[(3,4-Dimethoxyphenyl)-methyl-carbamoyl]phenyl]-3-(trifluoromethyl)-4,5,6,7-tetrahydroindazol-7-yl]oxy]benzoic acid]: the pEC50 is under 5.70.

For `CC(C)Oc1cncc(N(C)C(=O)c2cccc(-n3nc(C(F)(F)F)c4c3C(Oc3ccc(C(=O)O)cc3)CCC4)c2)c1` (racemic) [Compound 312, 4-[[1-[3-[(5-Isopropoxy-3-pyridyl)-methyl-carbamoyl]phenyl]-3-(trifluoromethyl)-4,5,6,7-tetrahydroindazol-7-yl]oxy]benzoic acid], the pEC50 is 5.70 to 6.00.

Regarding `CN(C(=O)c1cccc(-n2nc(C(F)(F)F)c3c2C(Oc2ccc(C(=O)O)cc2)CCC3)c1)c1cnc(OC2CC2)nc1` (racemic) [Compound 313, 4-[[1-[3-[[2-(Cyclopropoxy)pyrimidin-5-yl]-methyl-carbamoyl]phenyl]-3-(trifluoromethyl)-4,5,6,7-tetrahydroindazol-7-yl]oxy]benzoic acid], the pEC50 is 5.70 to 6.00.

Regarding `CN(C(=O)c1cccc(-n2nc(C(F)(F)F)c3c2C(Oc2ccc(C(=O)O)cc2)CCC3)c1)c1ccc(OC(F)F)nc1` (racemic) [Compound 314, 4-[[1-[3-[[6-(Difluoromethoxy)-3-pyridyl]-methyl-carbamoyl]phenyl]-3-(trifluoromethyl)-4,5,6,7-tetrahydroindazol-7-yl]oxy]benzoic acid], the pEC50 is over 6.00.

With `CN(C(=O)c1cccc(-n2nc(C(F)(F)F)c3c2C(Oc2ccc(C(=O)O)cc2)CCC3)c1)c1ccnc(C(F)(F)F)c1` (racemic) [Compound 315, 4-[[1-[3-[Methyl-[2-(trifluoromethyl)-4-pyridyl]carbamoyl]phenyl]-3-(trifluoromethyl)-4,5,6,7-tetrahydroindazol-7-yl]oxy]benzoic acid], the pEC50 was 5.70 to 6.00.

For `COc1cc(N(C)C(=O)c2cccc(-n3nc(C(F)(F)F)c4c3C(Oc3ccc(C(=O)O)cc3)CCC4)c2)ccn1` (racemic) [Compound 316, 4-[[1-[3-[(2-methoxy-4-pyridyl)-methyl-carbamoyl]phenyl]-3-(trifluoromethyl)-4,5,6,7-tetrahydroindazol-7-yl]oxy]benzoic acid], the pEC50 was 5.70 to 6.00.

On to `CC(C)Oc1cc(N(C)C(=O)c2cccc(-n3nc(C(F)(F)F)c4c3C(Oc3ccc(C(=O)O)cc3)CCC4)c2)ccn1` (racemic) [Compound 317, 4-[[1-[3-[(2-Isopropoxy-4-pyridyl)-methyl-carbamoyl]phenyl]-3-(trifluoromethyl)-4,5,6,7-tetrahydroindazol-7-yl]oxy]benzoic acid], for which the pEC50 was 5.70 to 6.00.
